Results on three molecules are retold here after patent US10537547B2, “Compositions favoring wound repair” (UNIVERSITÉ LAVAL, priority 2015, dated 2020).

For assay [1], the system named is tissue-engineered human corneas. The assay is described as follows: Wound closure of punch-wounded tissue-engineered human corneas. The class given is cell-based. To be noted: 8-mm punch wound; compounds in culture medium at 2x reported IC50 (GDC-0068 36 nM; C646 800 nM; SC79 10 μM along with C646 800 nM); monitored over 4 days; n=4. As for the experimental part:
FIGS. 5A to 5C illustrate the pharmacological alteration of Akt and CREB on wound closure dynamic. (A) Left panel: Tissue-engineered human corneas (TEC) (four reconstructed corneas per condition) were wounded as in FIG. 2 and then maintained in culture medium supplemented with […] (36 nM, thin line), a pharmacological inhibitor of Akt phosphorylation, and C646 (800 nM, broken line), an inhibitor of CREB phosphorylation. Wounded corneas used as controls were exposed solely to the vehicle (DMSO, thick line). Wound closure was monitored over a 4-day period. Right panel: Measurement of wound surface remaining at each day using the ImageJ64 software (n=4). (B) Left panel: TECs were wounded as in (A) and maintained in culture medium containing C646 (800 nM) along with the AKT agonist SC79 (10 μM) (thin line) or DMSO (broken line). Wound closure was monitored as in (A). Right panel: Measurement of wound surface remaining at each day using the ImageJ64 software (n=4). (C) Composite image showing a complete view of the wounded TECs exposed either to the vehicle (DMSO) or pharmacological compounds (C646, GDC0068 or the combination of C646 and SC79) 4 days following corneal damage (sections were stained with Masson's trichrome; cells are pink and collagen is bluish). The wound margin created by the biopsy punch is indicated.
The tissue-engineered, two-layers 3D human corneas that have been used as a biomaterial were produced following the self-assembly approach (see FIG. 1). Briefly, corneal fibroblasts were seeded and cultured in fibroblast growth medium supplemented with 50 μg/ml ascorbic acid (Sigma, Oakville, Ont., Canada) for 35 days. Ascorbic acid allows fibroblasts to secrete and lay down their own ECM. After peeling from the flasks, two tissue sheets were superimposed to form a reconstructed stroma and were cultured for another week so that they could adhere to each other. […]
The wound healing of in vitro reconstructed cornea was studied. […] Wound healing was monitored daily with microphotographs. […]

Another assay relates to mouse model of stroke. To be noted: cited from earlier work.
The next assay deals with Akt. Particulars: cell based assays; cited from earlier work.
For another assay, the system named is rabbit corneas. Kind of assay: Wound closure of rabbit corneas wounded with ethanol or N-heptanol combined with mechanical debridement. To be noted: C646 10 μM applied 3-times/day to the eye, vs DMSO, n=4. Format: in vivo, New Zealand white rabbits. The source says:
FIGS. 6A and 6B illustrate the impact of C646 on rabbit corneas wounded with either ethanol or N-heptanol combined to mechanical debridement. Rabbit corneas were wounded with ethanol (70%) or N-heptanol (100%) and mechanically debrided with a scalpel blade (crescent type). The rabbits were then divided into two groups: control corneas treated with DMSO or corneas treated with C646 (10 μm). n=4 for each conditions tested. (A) Fluorescein staining of corneas surgically wounded using either ethanol or N-heptanol combined with debridement using a crescent blade and treated with 10 μM C646. Wounded eyes were photographed using a slit lamp. (B) Graph representation of the remaining wounded corneal area (%) for each condition used in (A).
FIGS. 7A and 7B illustrate the impact of C646+SC79 on wounded rabbit corneas combined to mechanical debridement. Rabbit corneas were wounded with ethanol (70%) and mechanically debrided with a scalpel blade (crescent type). The rabbits were then divided into five groups: control corneas treated with DMSO, corneas treated with C646 (1 μM) and SC-79 (1 μM), corneas treated with C646 (1 μM) and SC-79 (10 μM), corneas treated with C646 (1 μM) and SC-79 (100 μM) and corneas treated with C646 (1 μm) and SC-79 (1 mM). n=4 for DMSO and n=5 for each remaining conditions tested. […]

Regarding `CCOC(=O)C1=C(N)Oc2ccc(Cl)cc2C1C(C#N)C(=O)OCC` (stereo not shown) [SC-79, Ethyl-2-amino-6-chloro-4-(1-cyano-2-ethoxy-2-oxoethyl)-4H-chromene-3-carboxylate], the “wound closure when compared to control (DMSO)” value in assay [1] is on record as “accelerated wound closure”. Besides, the neuronal death entry in the assay on mouse model of stroke was “prevents neuronal death”. Moreover, in the assay with Akt, the “cytosolic Akt signaling” value is “induces cytosolic Akt signaling”.

Regarding `CC1=NN(c2ccc(C(=O)O)cc2)C(=O)C1=Cc1ccc(-c2cc(C)c(C)cc2[N+](=O)[O-])o1` [C646, 4-[4-[[5-(4,5-Dimethyl-2-nitrophenyl)-2-furanyl]methylene]-4,5-dihydro-3-methyl-5-oxo-1H-pyrazol-1-yl]benzoic acid], the “wound closure when compared to control (DMSO)” value in assay [1] was “accelerated wound closure”. The wound closing time result in the assay with rabbit corneas (ethanol (70%) injury combined with mechanical debridement) was “clear reduction in the wound closing time”. For the same molecule, the wound closure entry with rabbit corneas (n-heptanol (100%) injury combined with mechanical debridement) is recorded as “no significant impact on wound closure”.

Take `CC(C)NC[C@@H](C(=O)N1CCN(c2ncnc3c2[C@H](C)C[C@H]3O)CC1)c1ccc(Cl)cc1` [GDC-0068]: the “wound closure when compared to control (DMSO)” value in assay [1] was “delayed wound closure”.
